Source: patent publication US10150760B2, “Compounds for use in preparing heterocyclic triazole agonists of the APJ receptor” (AMGEN INC., priority 2016, dated 2018)

Molecular target: human APJ receptor (Homo sapiens (Human), UniProt P35414)
Experiment: [35S]GTPγS binding assay on membranes from CHO cells stably expressing human APJ receptor
Format: biochemical
Details: read-out: Activity hAPJ SPA EC50 IP
Description: The human APJ receptor was cloned by polymerase chain reaction and the gene encoding the receptor was subcloned in pFLAG-CMV™-3 expression vector (Sigma, Saint Louis, Mo. USA) in-house at Amgen. A GTPγS binding assay was performed on membranes prepared from CHO cells stably expressing human APJ receptor. The optimum experimental conditions for the concentrations of GDP, MgCl2, and NaCl in the assay buffer were initially determined. The assay was performed in assay buffer [20 mM HEPES, pH 7.5, 5 mM MgCl2, and 0.1% (w/v) BSA with 200 mM NaCl, 3 μM GDP] and membranes expressing human APJ receptor/well along with WGA PS beads. The reaction was initiated by addition of 0.2 nM [^35S]GTPγS (Perkin Elmer Life and Analytical Sciences, Waltham USA) in the absence or presence of various ligands and incubated at RT for 90 min. Nonspecific binding was determined in the presence of 100 μM GTPγS and was always less than 0.2% of total binding. All the results presented are means of several independent experiments and analyzed by non-linear regression methods using commercially available program Prism (GraphPad, San Diego, Calif.) to obtain EC50 detailed in Table 38.

Sequence of human APJ receptor (P35414 whole entry): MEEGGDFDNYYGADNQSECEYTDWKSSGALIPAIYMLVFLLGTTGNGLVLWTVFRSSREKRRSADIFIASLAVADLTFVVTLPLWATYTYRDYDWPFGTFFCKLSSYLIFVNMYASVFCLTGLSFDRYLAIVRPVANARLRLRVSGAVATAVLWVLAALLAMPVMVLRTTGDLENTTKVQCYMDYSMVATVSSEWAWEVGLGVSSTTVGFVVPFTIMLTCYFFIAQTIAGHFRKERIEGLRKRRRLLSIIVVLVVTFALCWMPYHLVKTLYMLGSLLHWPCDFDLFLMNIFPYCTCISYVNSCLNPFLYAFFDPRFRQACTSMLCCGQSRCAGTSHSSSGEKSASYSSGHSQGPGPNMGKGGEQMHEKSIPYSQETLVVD

Structure (SMILES) | EC50 [µM]
COc1cccc(OC)c1-n1c(NS(=O)(=O)[C@@H](C)[C@H](OC)c2ncc(C)cn2)nnc1[C@@H]1CCNC1 (mixture of isomers) [Example 45.0, (1R,2S)-N-(4-(2,6-Dimethoxyphenyl)-5-((R)-pyrrolidin-3-yl)-4H-1,2,4-triazol-3-yl)-1-methoxy-1-(5-methylpyrimidin-2-yl)propane-2-sulfonamide and (1R,2S)-N-(4-(2,6-dimethoxyphenyl)-5-((S)-pyrrolidin-3-yl)-4H-1,2,4-triazol-3-yl)-1-methoxy-1-(5-methylpyrimidin-2-yl)propane-2-sulfonamide] | 0.51
COc1cccc(OC)c1-n1c(NS(=O)(=O)[C@@H](C)[C@H](C)c2ncc(C)cn2)nnc1[C@H]1CCCO1 (mixture of isomers) [Example 48.0, (2S,3R)-N-(4-(2,6-dimethoxyphenyl)-5-((R)-tetrahydrofuran-2-yl)-4H-1,2,4-triazol-3-yl)-3-(5-methylpyrimidin-2-yl)butane-2-sulfonamide and (2S,3R)-N-(4-(2,6-dimethoxyphenyl)-5-((S)-tetrahydrofuran-2-yl)-4H-1,2,4-triazol-3-yl)-3-(5-methylpyrimidin-2-yl)butane-2-sulfonamide] | 0.0039
COc1cccc(OC)c1-n1c(NS(=O)(=O)[C@@H](C)[C@H](C)c2ncc(Cl)cn2)nnc1[C@H]1CCO1 (mixture of isomers) [Example 142.0, (2S,3R)-3-(5-chloropyrimidin-2-yl)-N-(4-(2,6-dimethoxyphenyl)-5-((R)-oxetan-2-yl)-4H-1,2,4-triazol-3-yl)butane-2-sulfonamide and (2S,3R)-3-(5-chloropyrimidin-2-yl)-N-(4-(2,6-dimethoxyphenyl)-5-((S)-oxetan-2-yl)-4H-1,2,4-triazol-3-yl)butane-2-sulfonamide] | 0.0019
COc1cccc(OC)c1-n1c(NS(=O)(=O)CCc2ccc(F)cc2C#N)nnc1[C@@H]1CCCO1 (mixture of isomers) [Example 146.0, (S)-2-(2-Cyano-4-fluorophenyl)-N-(4-(2,6-dimethoxyphenyl)-5-(tetrahydrofuran-2-yl)-4H-1,2,4-triazol-3-yl)ethanesulfonamide and (R)-2-(2-cyano-4-fluorophenyl)-N-(4-(2,6-dimethoxyphenyl)-5-(tetrahydrofuran-2-yl)-4H-1,2,4-triazol-3-yl)ethanesulfonamide] | 0.45
COc1cnc([C@@H](C)[C@H](C)S(=O)(=O)Nc2nnc([C@@H]3CC[C@H](C)O3)n2-c2c(OC)cccc2OC)nc1 (mixture of isomers) [Example 249.0, (2S,3R)-N-(4-(2,6-dimethoxyphenyl)-5-((2R,5R)-5-methyltetrahydro-2-furanyl)-4H-1,2,4-triazol-3-yl)-3-(5-methoxy-2-pyrimidinyl)-2-butanesulfonamide and (2S,3R)-N-(4-(2,6-dimethoxyphenyl)-5-((2S,5S)-5-methyltetrahydro-2-furanyl)-4H-1,2,4-triazol-3-yl)-3-(5-methoxy-2-pyrimidinyl)-2-butanesulfonamide] | 0.54
COCC1(n2c(NS(=O)(=O)[C@@H](C)[C@H](OC)c3ncc(Cl)cn3)nnc2[C@H]2CCOC2)CC1 (mixture of isomers) [Example 303.0, (1R,2S)-1-(5-chloro-2-pyrimidinyl)-1-methoxy-N-(4-(1-(methoxymethyl)cyclopropyl)-5-((3R)-tetrahydro-3-furanyl)-4H-1,2,4-triazol-3-yl)-2-propanesulfonamide and (1R,2S)-1-(5-chloro-2-pyrimidinyl)-1-methoxy-N-(4-(1-(methoxymethyl)cyclopropyl)-5-((3S)-tetrahydro-3-furanyl)-4H-1,2,4-triazol-3-yl)-2-propanesulfonamide] | 0.34
COCC1(n2c(NS(=O)(=O)[C@@H](C)[C@H](OC)c3ncc(Cl)cn3)nnc2[C@H]2COCCO2)CC1 (mixture of isomers) [Example 304.0, (1R,2S)-N-(5-((S)-1,4-dioxan-2-yl)-4-(1-(methoxymethyl)cyclopropyl)-4H-1,2,4-triazol-3-yl)-1-(5-chloropyrimidin-2-yl)-1-methoxypropane-2-sulfonamide and (1R,2S)-N-(5-((R)-1,4-dioxan-2-yl)-4-(1-(methoxymethyl)cyclopropyl)-4H-1,2,4-triazol-3-yl)-1-(5-chloropyrimidin-2-yl)-1-methoxypropane-2-sulfonamide] | 0.21
COc1cccc(OC)c1-n1c(NS(=O)(=O)CCc2ncc(Cl)cn2)nnc1[C@@H]1COCCO1 (mixture of isomers) [Example 387.0, 2-(5-chloro-2-pyrimidinyl)-N-(4-(2,6-dimethoxyphenyl)-5-((2R)-1,4-dioxan-2-yl)-4H-1,2,4-triazol-3-yl)ethanesulfonamide and 2-(5-chloro-2-pyrimidinyl)-N-(4-(2,6-dimethoxyphenyl)-5-((2S)-1,4-dioxan-2-yl)-4H-1,2,4-triazol-3-yl)ethanesulfonamide] | 0.048
COc1cccc(OC)c1-n1c(NS(=O)(=O)CCc2ccc(Cl)cc2)nnc1[C@@H]1CCCO1 (racemic) [Example 143.0, (S)-2-(4-Chlorophenyl)-N-(4-(2,6-dimethoxyphenyl)-5-(tetrahydrofuran-2-yl)-4H-1,2,4-triazol-3-yl)ethanesulfonamide and (R)-2-(4-chlorophenyl)-N-(4-(2,6-dimethoxyphenyl)-5-(tetrahydrofuran-2-yl)-4H-1,2,4-triazol-3-yl)ethanesulfonamide] | 0.12
CO[C@H]1CCC[C@@H](OC)[C@@H]1n1c(NS(=O)(=O)[C@@H](C)[C@H](C)c2ncc(C)cn2)nnc1[C@@H]1CCCO1 (single isomer, unassigned) [Example 3.0, (2S,3R)-N-(4-((1r,2R,6S)-2,6-Dimethoxycyclohexyl)-5-((2S)-tetrahydro-2-furanyl)-4H-1,2,4-triazol-3-yl)-3-(5-methyl-2-pyrimidinyl)-2-butanesulfonamide or (2S,3R)-N-(4-((1r,2R,6S)-2,6-dimethoxycyclohexyl)-5-((2R)-tetrahydro-2-furanyl)-4H-1,2,4-triazol-3-yl)-3-(5-methyl-2-pyrimidinyl)-2-butanesulfonamide] | 1.2
COc1cccc(OC)c1-n1c(NS(=O)(=O)CCc2ccc(Cl)cc2)nnc1[C@H]1CCOC1 (single isomer, unassigned) [Example 9.0, (R)-2-(4-Chlorophenyl)-N-(4-(2,6-dimethoxyphenyl)-5-(tetrahydrofuran-3-yl)-4H-1,2,4-triazol-3-yl)ethanesulfonamide or (S)-2-(4-chlorophenyl)-N-(4-(2,6-dimethoxyphenyl)-5-(tetrahydrofuran-3-yl)-4H-1,2,4-triazol-3-yl)ethanesulfonamide] | 0.21
COc1cccc(OC)c1-n1c(NS(=O)(=O)[C@@H](C)[C@H](C)c2ncc(C#N)cn2)nnc1[C@@H]1CCCO1 (single isomer, unassigned) [Example 24.0, (2S,3R)-3-(5-Cyano-2-pyrimidinyl)-N-(4-(2,6-dimethoxyphenyl)-5-((2S)-tetrahydro-2-furanyl)-4H-1,2,4-triazol-3-yl)-2-butanesulfonamide or (2S,3R)-3-(5-cyano-2-pyrimidinyl)-N-(4-(2,6-dimethoxyphenyl)-5-((2R)-tetrahydro-2-furanyl)-4H-1,2,4-triazol-3-yl)-2-butanesulfonamide] | 0.0045
COc1ncnc(OC)c1-n1c(NS(=O)(=O)[C@@H](C)[C@H](C)c2ccc(Cl)cn2)nnc1[C@@H]1CCOC1 (single isomer, unassigned) [Example 37.0, (2S,3R)-3-(5-chloro-2-pyridinyl)-N-(4-(4,6-dimethoxy-5-pyrimidinyl)-5-((3S)-tetrahydro-3-furanyl)-4H-1,2,4-triazol-3-yl)-2-butanesulfonamide or (2S,3R)-3-(5-chloro-2-pyridinyl)-N-(4-(4,6-dimethoxy-5-pyrimidinyl)-5-((3R)-tetrahydro-3-furanyl)-4H-1,2,4-triazol-3-yl)-2-butanesulfonamide] | 0.012
COc1ncnc(OC)c1-n1c(NS(=O)(=O)[C@@H](C)[C@H](C)c2ccc(Cl)cn2)nnc1[C@H]1CCOC1 (single isomer, unassigned) [Example 38.0, (2S,3R)-3-(5-chloro-2-pyridinyl)-N-(4-(4,6-dimethoxy-5-pyrimidinyl)-5-((3R)-tetrahydro-3-furanyl)-4H-1,2,4-triazol-3-yl)-2-butanesulfonamide or (2S,3R)-3-(5-chloro-2-pyridinyl)-N-(4-(4,6-dimethoxy-5-pyrimidinyl)-5-((3S)-tetrahydro-3-furanyl)-4H-1,2,4-triazol-3-yl)-2-butanesulfonamide] | 0.019
COc1cccc(OC)c1-n1c(NS(=O)(=O)[C@@H](C)[C@H](C)c2ncc(Cl)cn2)nnc1[C@@H]1COCCO1 (single isomer, unassigned) [Example 39.0, (2S,3R)-3-(5-chloro-2-pyrimidinyl)-N-(4-(2,6-dimethoxyphenyl)-5-((2R)-1,4-dioxan-2-yl)-4H-1,2,4-triazol-3-yl)-2-butanesulfonamide or (2S,3R)-3-(5-chloro-2-pyrimidinyl)-N-(4-(2,6-dimethoxyphenyl)-5-((2S)-1,4-dioxan-2-yl)-4H-1,2,4-triazol-3-yl)-2-butanesulfonamide] | 0.0053
